Structures can show the parent of a compound that is named as a salt. Where two headings read alike, the source gives them in different places.
Target: T1, human mAChR M4 (Homo sapiens, UniProt P08173)
T1 sequence (P08173 1-479): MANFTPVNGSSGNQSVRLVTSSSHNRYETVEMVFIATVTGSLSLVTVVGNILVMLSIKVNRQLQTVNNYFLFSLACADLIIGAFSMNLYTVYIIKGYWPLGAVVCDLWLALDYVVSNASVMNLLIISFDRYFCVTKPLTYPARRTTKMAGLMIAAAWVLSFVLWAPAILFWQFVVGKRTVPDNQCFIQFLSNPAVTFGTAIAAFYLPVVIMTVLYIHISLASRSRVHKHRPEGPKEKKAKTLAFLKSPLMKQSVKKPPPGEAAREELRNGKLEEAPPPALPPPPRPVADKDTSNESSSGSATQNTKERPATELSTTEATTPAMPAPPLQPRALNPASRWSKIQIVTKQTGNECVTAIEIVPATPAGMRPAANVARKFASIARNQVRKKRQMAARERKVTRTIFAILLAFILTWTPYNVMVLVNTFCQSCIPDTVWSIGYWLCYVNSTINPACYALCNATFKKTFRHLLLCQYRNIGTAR
Assay: mAChR M4 cell-based functional assay (calcium flux), human M4

[1] = Human M4 EC50 (nM), Table 10, calcium flux, PAM activity with EC20 acetylcholine
[2] = Table 10, % ACh maximum at 30 μM
[3] = Table 11, % ACh maximum at 30 μM
[4] = Human M4 EC50 (nM), Table 11, calcium flux, PAM activity with EC20 acetylcholine

SMILES	EC50 [1]	Emax [2]	other results
Cc1nnc2sc3c(NC4CN(c5ncc(F)cn5)C4)ncnc3c2c1C [Compound 84, N-[1-(5-fluoropyrimidin-2-yl)azetidin-3-yl]-3,4-dimethyl-pyrimido [4′,5′:4,5]thieno[2,3-c] pyridazin-8-amine]		64.9%	EC50: 27.6 nM
[2H]C([2H])([2H])C(O)(c1ccc(CNc2ncnc3c2sc2nnc(C)c(C)c23)cc1)C([2H])([2H])[2H] [Compound 352, 1,1,1,3,3,3-hexadeuterio-2-[4-[[(3,4-dimethylpyrimido [4′,5′:4,5]thieno[2,3-c]pyridazin-8-yl)amino]methyl]phenyl]propan-2-ol]			Emax [3]: 103%
Cc1nc2sc3c(N4CC5(COC5)C4)ncnc3c2c(C)c1Cl [Compound 260, 6-(8-chloro-7,9-dimethyl-pyrido [3′,2′:4,5]thieno[3,2-d]pyrimidin-4-yl)-2-oxa-6-azaspiro[3.3]heptane hydrochloride]		70.9%	
Cc1cc(C)c2c(n1)sc1c(N3CC4(COC4)C3)ncnc12 [Compound 195, 6-(7,9-dimethylpyrido [3′,2′:4,5]thieno[3,2-d]pyrimidin-4-yl)-2-oxa-6-azaspiro[3.3]heptane]		76.3%	
Cc1c(Cl)cnc2sc3c(NCc4cnc5c(c4)CCC5)ncnc3c12 [Compound 235, 8-chloro-N-(6,7-dihydro-5H-cyclopenta[b]pyridin-3-ylmethyl)-9-methyl-pyrido [3′,2′:4,5]thieno[3,2-d] pyrimidin-4-amine]	2890 nM	31.8%	
COc1nnc2sc3c(N4CCCC4)ncnc3c2c1C [Compound 281, 3-methoxy-4-methyl-8-pyrrolidin-1-yl-pyrimido [4′,5′:4,5]thieno[2,3-c] pyridazine]	47.7 nM	117%	
Cc1nc2sc3c(N4CC(c5ccncc5)C4)ncnc3c2c(C)c1Cl [Compound 262, 8-chloro-7,9-dimethyl-4-[3-(4-pyridyl)azetidin-1-yl]pyrido[3′,2′:4,5] thieno[3,2-d]pyrimidine dihydrochloride]	1520 nM	83.8%	
Cc1cc(C)c2c(n1)oc1c(NC3CC3)ncnc12 [Compound 62, N-cyclopropyl-7,9-dimethyl-pyrido[3′,2′:4,5]furo[3,2-d]pyrimidin-4-amine hydrochloride]			Emax: 63.9%
Cc1nnc2sc3c(NCc4ccc(C(=O)NC5CC(F)C5)c(Cl)c4)ncnc3c2c1C (stereo not shown) [Compound 321, 2-chloro-4-[[(3,4-dimethylpyrimido [4′,5′:4,5]thieno[2,3-c]pyridazin-8-yl)amino]methyl]-N-(3-fluorocyclobutyl) benzamide]			EC50 [4]: 102 nM; Emax [3]: 80.6%
Cc1nnc2sc3c(N4CCC(Oc5ccnc(Cl)c5)CC4)ncnc3c2c1C [Compound 346, 8-[4-[(2-chloro-4-pyridyl)oxy]-1-piperidyl]-3,4-dimethyl-pyrimido [4′,5′:4,5]thieno[2,3-c] pyridazine]			EC50 [4]: 749 nM; Emax [3]: 56.8%
Cc1c(Cl)cnc2sc3c(N4CCCC4)ncnc3c12 [Compound 215, 8-chloro-9-methyl-4-pyrrolidin-1-yl-pyrido [3′,2′:4,5]thieno[3,2-d] pyrimidine]	5980 nM	45%	
Cc1nnc2sc3c(NC4CCN(c5ccccc5)C4)ncnc3c2c1C (stereo not shown) [Compound 23, 3,4-dimethyl-N-(1-phenylpyrrolidin-3-yl) pyrimido[4′,5′:4,5]thieno [2,3-c]pyridazin-8-amine]			Emax (Human M4, % ACh maximum at 30 μM): 27%; EC50 (Human M4 EC50, CHO-K1 hM4-Gqi5 cells, calcium flux, increase in EC20 acetylcholine response): ≥ 10000 nM
Cc1nc2sc3c(N4CCC(F)(F)C4)ncnc3c2c(C)c1Cl [Compound 255, 8-chloro-4-(3,3-difluoropyrrolidin-1-yl)-7,9-dimethyl-pyrido [3′,2′:4,5]thieno[3,2-d] pyrimidine hydrochloride]	2340 nM	73%	
Cc1nnc2sc3c(NCc4ccc(C(=O)NC(C)C)c(Cl)c4)ncnc3c2c1C [Compound 318, 2-chloro-4-[[(3,4-dimethylpyrimido[4′,5′:4,5]thieno[2,3-c]pyridazin-8-yl)amino]methyl]-N-isopropyl-benzamide]			EC50 [4]: 193 nM; Emax [3]: 81.7%
Cc1nnc2sc3c(N4CC(Oc5cnn(C)c5)C4)ncnc3c2c1C [Compound 357, 3,4-dimethyl-8-[3-(1-methylpyrazol-4-yl)oxyazetidin-1-yl]pyrimido [4′,5′:4,5]thieno[2,3-c] pyridazine dihydrochloride]			EC50 [4]: 1400 nM; Emax [3]: 41.3%
Cc1cc(C)c2c(n1)oc1c(NC3CN(c4ncc(F)cn4)C3)ncnc12 [Compound 289, N-[1-(5-fluoropyrimidin-2-yl)azetidin-3-yl]-7,9-dimethyl-pyrido[3′,2′:4,5]furo[3,2-d]pyrimidin-4-amine hydrochloride]		34.9%	
Cc1nnc2sc3c(NCc4ccc(CN5CCOCC5)cc4)ncnc3c2c1C [Compound 108, 3,4-dimethyl-N-[[4-(morpholinomethyl)phenyl]methyl]pyrimido[4′,5′:4,5] thieno[2,3-c] pyridazin-8-amine hydrochloride]	148 nM		Emax: 76.8%

More lines, main results first:

EC50 [1]	Emax [2]	SMILES	other results
469 nM	91.8%	Cc1nnc2sc3c(NCc4ccc(C(=O)N5CCC(F)(F)C5)cc4)ncnc3c2c1C [Compound 134, (3,3-difluoropyrrolidin-1-yl)-[4-[[(3,4-dimethylpyrimido [4′,5′:4,5]thieno[2,3-c]pyridazin-8-yl)amino]methyl]phenyl]methanone]	
831 nM	94.3%	Cc1nnc2sc3c(NCc4ccc(C(C)(C)O)cc4Cl)ncnc3c2c1C [Compound 189, 2-[3-chloro-4-[[(3,4-dimethylpyrimido [4′,5′:4,5]thieno[2,3-c]pyridazin-8-yl)amino]methyl]phenyl]propan-2-ol]	
	22%	Cc1nc2sc3c(NCc4ccc5c(c4)CC(C)(C)O5)ncnc3c2c(C)c1Cl [Compound 270, 8-chloro-N-[(2,2-dimethyl-3H-benzofuran-5-yl)methyl]-7,9-dimethyl-pyrido[3′,2′:4,5]thieno [3,2-d]pyrimidin-4-amine dihydrochloride]	EC50 (Human M4 EC50 (nM), Table 10, unit μM (bounds)): > 10000 nM
114 nM	87.4%	Cc1nnc2sc3c(NCc4ccc(C(=O)NC5CCCC5)cc4)ncnc3c2c1C [Compound 153, N-cyclopentyl-4-[[(3,4-dimethylpyrimido [4′,5′:4,5]thieno[2,3-c]pyridazin-8-yl)amino]methyl]benzamide]	
446 nM	90.6%	Cc1nnc2sc3c(NCc4ccc(C(=O)N5CC[C@@H](F)C5)cc4)ncnc3c2c1C [Compound 129, [4-[[(3,4-dimethylpyrimido [4′,5′:4,5]thieno[2,3-c]pyridazin-8-yl)amino]methyl]phenyl]-[(3R)-3-fluoropyrrolidin-1-yl]methanone]	
288 nM	84.8%	Cc1nnc2sc3c(NCc4ccc(C(=O)N5CC6(COC6)C5)cc4)ncnc3c2c1C [Compound 124, [4-[[(3,4-dimethylpyrimido [4′,5′:4,5]thieno[2,3-c]pyridazin-8-yl)amino]methyl]phenyl]-(2-oxa-6-azaspiro[3.3]heptan-6-yl)methanone]	
529 nM	92%	Cc1nnc2sc3c(NCc4ccc(C(=O)N5CC[C@H](F)C5)cc4)ncnc3c2c1C [Compound 128, [4-[[(3,4-dimethylpyrimido [4′,5′:4,5]thieno[2,3-c]pyridazin-8-yl)amino]methyl]phenyl]-[(3S)-3-fluoropyrrolidin-1-yl]methanone]	
1210 nM	97.6%	Cc1nnc2sc3c(NCc4ccc(F)c(C(=O)NCC(C)C)c4)ncnc3c2c1C [Compound 180, 5-[[(3,4-dimethylpyrimido [4′,5′:4,5]thieno[2,3-c]pyridazin-8-yl)amino]methyl]-2-fluoro-N-isobutyl-benzamide]	
3800 nM	37%	Cc1nc2sc3c(NCc4ccc(C(C)(C)O)c(F)c4)ncnc3c2c(C)c1Cl [Compound 278, 2-[4-[[(8-chloro-7,9-dimethyl-pyrido [3′,2′:4,5]thieno[3,2-d]pyrimidin-4-yl)amino]methyl]-2-fluoro-phenyl] propan-2-ol]	
439 nM	82%	Cc1nnc2sc3c(NCc4ccc(-c5ccnn5C)cc4)ncnc3c2c1C [Compound 193, 3,4-dimethyl-N-[[4-(2-methylpyrazol-3-yl)phenyl]methyl]pyrimido [4′,5′:4,5]thieno[2,3-c] pyridazin-8-amine]	
548 nM	87.2%	Cc1nnc2sc3c(NCc4ccc(C(=O)N5CCOCC5)cc4)ncnc3c2c1C [Compound 123, [4-[[(3,4-dimethylpyrimido [4′,5′:4,5]thieno[2,3-c]pyridazin-8-yl)amino]methyl]phenyl]-morpholino-methanone]	
1250 nM	53.6%	Cc1nnc2sc3c(N4Cc5ccc(C(C)(C)O)cc5C4)ncnc3c2c1C [Compound 142, 2-[2-(3,4-dimethylpyrimido [4′,5′:4,5]thieno[2,3-c]pyridazin-8-yl)isoindolin-5-yl]propan-2-ol; 2,2,2-trifluoroacetic acid]	
639 nM	79.7%	COc1ccc(CNc2ncnc3c2sc2nnc(C)c(C)c23)cc1OC [Compound 94, N-[(3,4-dimethoxyphenyl)methyl]-3,4-dimethyl-pyrimido[4′,5′:4,5]thieno [2,3-c]pyridazin-8-amine]	
